# Columns and labels:
# Test in all cases: biochemical
# Design in all cases: SelectScreen LanthaScreen kinase binding assay, per cent tracer displacement, mean of two points
# Settings in all cases: tracer displacement
# BRAF = BRAF (Homo sapiens, UniProt P15056)
# CAMKK2 (CaMKK beta) = CAMKK2 (CaMKK beta) (Homo sapiens, UniProt Q96RR4)
# CDK3/cyclin E1 = CDK3/cyclin E1 (Homo sapiens, UniProt Q00526)
# KIT D816V = KIT D816V (Homo sapiens, UniProt P10721, D816V)
# KIT V559D T670I = KIT V559D T670I (Homo sapiens, UniProt P10721, T670I/V559D)
# Chain of KIT V559D T670I (P10721 whole entry V559D/T670I): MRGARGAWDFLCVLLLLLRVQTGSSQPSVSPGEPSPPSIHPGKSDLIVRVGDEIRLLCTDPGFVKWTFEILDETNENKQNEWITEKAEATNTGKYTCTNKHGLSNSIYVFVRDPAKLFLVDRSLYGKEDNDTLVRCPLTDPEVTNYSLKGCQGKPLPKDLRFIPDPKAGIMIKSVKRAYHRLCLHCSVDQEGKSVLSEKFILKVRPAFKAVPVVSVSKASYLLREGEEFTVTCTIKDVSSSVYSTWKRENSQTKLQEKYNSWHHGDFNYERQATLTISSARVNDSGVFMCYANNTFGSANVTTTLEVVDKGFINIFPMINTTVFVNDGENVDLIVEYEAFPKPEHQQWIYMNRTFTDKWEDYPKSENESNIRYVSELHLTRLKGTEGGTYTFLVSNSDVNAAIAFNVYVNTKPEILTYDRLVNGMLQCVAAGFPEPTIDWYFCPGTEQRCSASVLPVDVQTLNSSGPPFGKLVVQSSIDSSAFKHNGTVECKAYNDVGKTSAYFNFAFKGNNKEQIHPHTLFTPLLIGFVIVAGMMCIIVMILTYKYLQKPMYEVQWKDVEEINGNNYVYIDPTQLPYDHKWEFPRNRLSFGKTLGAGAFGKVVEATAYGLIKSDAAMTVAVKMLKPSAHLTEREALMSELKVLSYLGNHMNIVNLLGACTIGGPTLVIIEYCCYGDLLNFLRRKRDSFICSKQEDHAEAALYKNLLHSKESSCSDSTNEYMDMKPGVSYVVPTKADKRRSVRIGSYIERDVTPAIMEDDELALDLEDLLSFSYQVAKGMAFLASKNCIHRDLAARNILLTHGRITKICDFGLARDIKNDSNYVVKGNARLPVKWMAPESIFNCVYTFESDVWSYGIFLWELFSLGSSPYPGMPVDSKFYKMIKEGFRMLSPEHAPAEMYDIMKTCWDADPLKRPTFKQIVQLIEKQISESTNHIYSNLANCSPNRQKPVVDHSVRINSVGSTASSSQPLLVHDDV
# STK32C (YANK3) = STK32C (YANK3) (Homo sapiens, UniProt Q86UX6)
# Chain of STK32C (YANK3) (Q86UX6 whole entry): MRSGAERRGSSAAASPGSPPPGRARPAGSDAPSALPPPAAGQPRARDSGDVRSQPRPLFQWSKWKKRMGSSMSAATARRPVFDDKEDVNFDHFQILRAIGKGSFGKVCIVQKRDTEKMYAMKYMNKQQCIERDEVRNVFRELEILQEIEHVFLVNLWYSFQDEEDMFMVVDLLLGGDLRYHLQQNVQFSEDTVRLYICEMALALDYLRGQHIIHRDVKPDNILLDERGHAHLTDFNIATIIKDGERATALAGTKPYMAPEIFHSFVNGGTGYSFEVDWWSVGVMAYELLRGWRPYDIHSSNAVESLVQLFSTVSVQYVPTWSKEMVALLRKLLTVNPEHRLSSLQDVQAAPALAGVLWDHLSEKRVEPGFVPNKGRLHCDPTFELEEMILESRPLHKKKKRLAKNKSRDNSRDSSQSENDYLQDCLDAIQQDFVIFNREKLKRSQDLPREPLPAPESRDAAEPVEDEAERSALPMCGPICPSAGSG
# TNIK = TNIK (Homo sapiens, UniProt Q9UKE5)
# Chain of TNIK (Q9UKE5 whole entry): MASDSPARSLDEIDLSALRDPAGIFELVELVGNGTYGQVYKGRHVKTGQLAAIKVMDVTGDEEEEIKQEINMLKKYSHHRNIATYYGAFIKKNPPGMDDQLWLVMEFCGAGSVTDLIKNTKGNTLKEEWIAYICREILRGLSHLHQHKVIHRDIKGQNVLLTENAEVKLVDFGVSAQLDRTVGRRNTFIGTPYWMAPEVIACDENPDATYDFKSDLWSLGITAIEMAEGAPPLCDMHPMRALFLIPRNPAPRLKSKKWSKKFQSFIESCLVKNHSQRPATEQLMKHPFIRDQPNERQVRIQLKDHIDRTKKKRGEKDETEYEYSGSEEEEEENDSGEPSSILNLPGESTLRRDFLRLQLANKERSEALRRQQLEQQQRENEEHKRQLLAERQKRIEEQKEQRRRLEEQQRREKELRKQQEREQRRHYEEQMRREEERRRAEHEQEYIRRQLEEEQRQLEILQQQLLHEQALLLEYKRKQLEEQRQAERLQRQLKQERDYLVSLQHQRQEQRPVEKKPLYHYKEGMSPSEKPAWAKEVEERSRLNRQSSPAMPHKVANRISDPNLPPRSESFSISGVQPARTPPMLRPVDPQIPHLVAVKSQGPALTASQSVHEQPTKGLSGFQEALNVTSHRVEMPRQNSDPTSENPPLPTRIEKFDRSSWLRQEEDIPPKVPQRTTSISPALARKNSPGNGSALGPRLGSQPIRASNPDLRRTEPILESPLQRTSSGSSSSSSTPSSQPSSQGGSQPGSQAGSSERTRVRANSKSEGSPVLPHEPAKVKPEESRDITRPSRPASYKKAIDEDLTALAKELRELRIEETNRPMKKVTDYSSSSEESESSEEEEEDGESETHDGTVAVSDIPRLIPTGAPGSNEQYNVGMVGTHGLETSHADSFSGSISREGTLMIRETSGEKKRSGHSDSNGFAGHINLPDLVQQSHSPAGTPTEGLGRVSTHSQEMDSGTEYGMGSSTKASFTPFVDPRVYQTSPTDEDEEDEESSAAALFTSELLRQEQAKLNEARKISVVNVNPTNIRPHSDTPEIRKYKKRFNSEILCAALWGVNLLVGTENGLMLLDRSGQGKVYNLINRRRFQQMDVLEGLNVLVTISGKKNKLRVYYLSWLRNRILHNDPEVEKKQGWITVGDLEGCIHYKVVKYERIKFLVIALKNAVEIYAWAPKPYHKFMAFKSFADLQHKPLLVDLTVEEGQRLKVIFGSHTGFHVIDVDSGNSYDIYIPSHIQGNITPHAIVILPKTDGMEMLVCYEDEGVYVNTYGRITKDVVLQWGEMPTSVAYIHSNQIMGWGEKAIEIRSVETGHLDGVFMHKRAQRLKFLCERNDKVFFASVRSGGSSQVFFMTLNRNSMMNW
# ULK2 = target: T1, ULK2 (Homo sapiens, UniProt Q8IYT8)
# T1 sequence (Q8IYT8 1-1036): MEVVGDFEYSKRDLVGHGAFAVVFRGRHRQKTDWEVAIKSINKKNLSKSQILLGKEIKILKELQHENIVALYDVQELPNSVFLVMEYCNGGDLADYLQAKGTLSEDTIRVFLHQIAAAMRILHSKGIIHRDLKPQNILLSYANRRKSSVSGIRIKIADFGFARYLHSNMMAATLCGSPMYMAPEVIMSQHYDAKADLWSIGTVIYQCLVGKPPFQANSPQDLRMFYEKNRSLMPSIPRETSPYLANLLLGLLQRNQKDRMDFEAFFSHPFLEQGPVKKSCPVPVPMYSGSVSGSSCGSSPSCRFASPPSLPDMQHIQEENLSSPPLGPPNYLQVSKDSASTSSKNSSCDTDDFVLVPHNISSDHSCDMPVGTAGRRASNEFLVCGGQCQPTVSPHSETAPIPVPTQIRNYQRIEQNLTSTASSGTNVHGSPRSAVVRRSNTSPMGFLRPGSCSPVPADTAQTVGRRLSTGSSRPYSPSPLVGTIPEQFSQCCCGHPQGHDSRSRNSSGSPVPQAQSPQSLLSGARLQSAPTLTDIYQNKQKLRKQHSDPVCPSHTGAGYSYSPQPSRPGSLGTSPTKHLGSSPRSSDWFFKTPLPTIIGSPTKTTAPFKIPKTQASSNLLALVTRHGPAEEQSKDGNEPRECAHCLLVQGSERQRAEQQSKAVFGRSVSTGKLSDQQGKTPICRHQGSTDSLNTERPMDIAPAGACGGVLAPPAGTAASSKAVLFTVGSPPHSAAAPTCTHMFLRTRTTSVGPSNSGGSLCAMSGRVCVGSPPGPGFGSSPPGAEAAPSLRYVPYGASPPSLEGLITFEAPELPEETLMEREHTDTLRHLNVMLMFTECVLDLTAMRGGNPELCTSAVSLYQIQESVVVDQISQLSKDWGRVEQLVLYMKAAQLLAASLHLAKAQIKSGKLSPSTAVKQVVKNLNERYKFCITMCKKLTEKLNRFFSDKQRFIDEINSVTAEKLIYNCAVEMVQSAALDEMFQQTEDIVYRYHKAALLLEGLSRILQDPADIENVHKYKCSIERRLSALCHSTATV
# WNK1 = WNK1 (Homo sapiens, UniProt Q9H4A3)
# Chain of BRAF (P15056 whole entry): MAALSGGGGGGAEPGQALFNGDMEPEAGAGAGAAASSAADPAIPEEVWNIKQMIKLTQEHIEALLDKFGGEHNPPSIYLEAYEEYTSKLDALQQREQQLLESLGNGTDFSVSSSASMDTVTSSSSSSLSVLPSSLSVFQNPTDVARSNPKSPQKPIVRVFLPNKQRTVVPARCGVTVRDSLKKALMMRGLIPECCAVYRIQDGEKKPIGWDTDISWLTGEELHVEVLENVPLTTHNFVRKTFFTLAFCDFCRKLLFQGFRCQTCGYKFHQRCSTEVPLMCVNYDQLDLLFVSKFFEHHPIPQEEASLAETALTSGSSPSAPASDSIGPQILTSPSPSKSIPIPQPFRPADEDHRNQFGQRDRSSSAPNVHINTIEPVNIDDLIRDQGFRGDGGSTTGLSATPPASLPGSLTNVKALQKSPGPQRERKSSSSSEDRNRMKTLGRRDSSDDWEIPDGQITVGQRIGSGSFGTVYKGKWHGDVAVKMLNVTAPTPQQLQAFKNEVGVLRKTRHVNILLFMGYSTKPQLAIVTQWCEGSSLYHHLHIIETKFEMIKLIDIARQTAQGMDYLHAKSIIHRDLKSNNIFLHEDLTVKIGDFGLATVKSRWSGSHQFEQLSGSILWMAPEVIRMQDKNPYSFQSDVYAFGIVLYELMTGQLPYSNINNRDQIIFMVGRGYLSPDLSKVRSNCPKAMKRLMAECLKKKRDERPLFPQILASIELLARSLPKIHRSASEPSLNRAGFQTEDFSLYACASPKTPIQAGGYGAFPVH
# Chain of CAMKK2 (CaMKK beta) (Q96RR4 whole entry): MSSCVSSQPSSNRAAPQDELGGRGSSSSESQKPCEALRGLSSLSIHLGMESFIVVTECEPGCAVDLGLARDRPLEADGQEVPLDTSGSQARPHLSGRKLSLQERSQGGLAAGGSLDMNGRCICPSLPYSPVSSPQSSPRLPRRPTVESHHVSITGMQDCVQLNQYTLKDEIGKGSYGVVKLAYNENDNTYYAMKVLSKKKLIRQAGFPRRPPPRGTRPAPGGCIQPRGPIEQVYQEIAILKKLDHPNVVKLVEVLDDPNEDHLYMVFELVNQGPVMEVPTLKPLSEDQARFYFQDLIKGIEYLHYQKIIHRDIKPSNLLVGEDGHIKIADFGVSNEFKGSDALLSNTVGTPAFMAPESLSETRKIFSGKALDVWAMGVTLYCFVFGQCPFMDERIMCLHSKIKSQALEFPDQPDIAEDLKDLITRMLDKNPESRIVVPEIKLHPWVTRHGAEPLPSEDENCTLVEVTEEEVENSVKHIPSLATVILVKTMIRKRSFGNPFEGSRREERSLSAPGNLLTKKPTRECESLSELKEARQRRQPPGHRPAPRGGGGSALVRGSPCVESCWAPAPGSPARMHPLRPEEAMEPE
# Chain of KIT D816V (P10721 whole entry D816V): as the sequence (P10721 whole entry V559D/T670I) above, with D559V, I670T, D816V counted along it
# Chain of CDK3/cyclin E1 (Q00526 whole entry): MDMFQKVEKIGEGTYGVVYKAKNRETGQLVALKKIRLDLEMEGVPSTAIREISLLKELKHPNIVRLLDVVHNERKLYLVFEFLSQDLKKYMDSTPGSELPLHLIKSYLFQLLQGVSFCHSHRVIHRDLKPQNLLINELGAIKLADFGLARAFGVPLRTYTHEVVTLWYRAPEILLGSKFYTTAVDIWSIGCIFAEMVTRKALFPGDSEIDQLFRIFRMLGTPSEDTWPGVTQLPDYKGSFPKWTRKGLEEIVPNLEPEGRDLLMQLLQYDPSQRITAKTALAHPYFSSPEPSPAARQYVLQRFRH
# Chain of CDK3/cyclin E1 (P24864 whole entry partner): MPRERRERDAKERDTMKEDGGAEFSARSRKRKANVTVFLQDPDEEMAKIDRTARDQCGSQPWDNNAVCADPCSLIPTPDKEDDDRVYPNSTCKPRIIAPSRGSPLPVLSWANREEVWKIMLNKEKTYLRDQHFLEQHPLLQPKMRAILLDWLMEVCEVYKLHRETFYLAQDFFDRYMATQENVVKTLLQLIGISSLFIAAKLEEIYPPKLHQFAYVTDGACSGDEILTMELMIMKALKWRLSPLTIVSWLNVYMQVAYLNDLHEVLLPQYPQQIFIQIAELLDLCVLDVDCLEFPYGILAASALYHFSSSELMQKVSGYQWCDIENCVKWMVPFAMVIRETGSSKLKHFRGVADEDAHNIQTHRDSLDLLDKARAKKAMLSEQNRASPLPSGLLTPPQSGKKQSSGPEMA
inhibition at 1 µM (BRAF),inhibition at 3 µM (BRAF),inhibition at 10 µM (BRAF),inhibition at 1 µM (CAMKK2 (CaMKK beta)),inhibition at 3 µM (CAMKK2 (CaMKK beta)),inhibition at 10 µM (CAMKK2 (CaMKK beta)),inhibition at 1 µM (CDK3/cyclin E1),inhibition at 3 µM (CDK3/cyclin E1),inhibition at 10 µM (CDK3/cyclin E1),inhibition at 1 µM (KIT D816V),inhibition at 3 µM (KIT D816V),inhibition at 10 µM (KIT D816V),inhibition at 1 µM (KIT V559D T670I),inhibition at 3 µM (KIT V559D T670I),inhibition at 10 µM (KIT V559D T670I),inhibition at 1 µM (STK32C (YANK3)),inhibition at 3 µM (STK32C (YANK3)),inhibition at 10 µM (STK32C (YANK3)),inhibition at 1 µM (TNIK),inhibition at 3 µM (TNIK),further results,Structure (SMILES)
-3.95%,1.69%,0.837%,-0.673%,-0.395%,3.84%,-0.974%,-9.41%,1.77%,-3.29%,2.7%,-1.13%,-4.48%,0.47%,6.38%,-7%,-1.98%,-5.28%,-4.88%,-3.23%,inhibition at 10 µM (TNIK): -2.09%; inhibition at 1 µM (ULK2): -4.11%; inhibition at 3 µM (ULK2): -4.09%; inhibition at 10 µM (ULK2): -1.99%; inhibition at 1 µM (WNK1): -6.21%; inhibition at 3 µM (WNK1): -5.06%; inhibition at 10 µM (WNK1): -3.46%,"O=C(CSc1nc2nccnc2c(=O)n1CCc1ccccc1)Nc1nccs1 [compound 1, PITCOIN1]"
6.15%,7.18%,9.11%,2.3%,4.67%,4.93%,13.1%,8.71%,-18.8%,6.33%,6.29%,5.56%,-12.1%,0.144%,1.37%,8.19%,-2.39%,-8.61%,4.57%,2.17%,inhibition at 10 µM (TNIK): -4.46%; inhibition at 1 µM (ULK2): -2.32%; inhibition at 3 µM (ULK2): -0.489%; inhibition at 10 µM (ULK2): 2.18%; inhibition at 1 µM (WNK1): -2.33%; inhibition at 3 µM (WNK1): -3.62%; inhibition at 10 µM (WNK1): 0.594%,"CS(=O)(=O)Nc1cccc(-c2csc(NC(=O)CSc3nc4nccnc4c(=O)n3CCc3ccccc3)n2)c1 [compound 3, PITCOIN3]"

# Source: PMC7613998, “Development of selective inhibitors of phosphatidylinositol 3-kinase C2α” (Nature Chemical Biology, 2022)
